Measurements reported in patent US20240350522A1, “HYGROMYCIN A FOR TREATMENT OF DISEASES AND INFECTIONS” (FLIGHTPATH BIOSCIENCES, INC., priority 2021, published 2024).
Read-outs that look alike come from different tables or passages of the source.

Experiments:
[1] = system: Porphyromonas gingivalis (ATCC 33277); experiment: MIC of Hyg A against P. gingivalis (OD600, dark field microscopy); format: cell-based
F. nucleatum animalis = experiment: Kirby-Bauer diffusion assay; format: cell-based, Fusobacterium nucleatum; settings: for zone of inhibition at 5 µg/disc / zone of inhibition at 10 µg/disc / zone of inhibition at 20 µg/disc / zone of inhibition at 40 µg/disc: Fusobacterium nucleatum, mean (SEM), read-out: size of zone inhibition (mm); for zone of inhibition at 5 µg/disc: Hyg A 5 μg per disc; for zone of inhibition at 10 µg/disc: Hyg A 10 μg per disc; for zone of inhibition at 20 µg/disc: Hyg A 20 μg per disc; for zone of inhibition at 40 µg/disc: Hyg A 40 μg per disc
Procedure: (§1) Three representatives of 6 subspecies of Fusobacterium nucleatum (F. nucleatum) for a total of 18 strains were tested in the experiment. The sub species and strains are described in Table 2.
(§2) All strains were verified by 16S V3/V6 sequence analysis prior to use. The methods described herein were performed in an anaerobic chamber at 37° C. All media and plates were degassed prior to use.
(§3) Hygromycin A (Hyg A) discs were prepared by solubilizing Hyg A in distilled water and sterile filtered. Clindamycin was used as a positive control. Defined amounts of hygromycin A (40, 20, 10 or 5 micrograms), clindamycin (2 micrograms) or sterile distilled water were absorbed onto Kirby-Bauer discs in a biosafety cabinet.
(§4) An overnight culture was grown in Wilkins-Chalgren (WC) broth and back-diluted 1:10 in fresh broth. When an OD 600 reading reached 0.5, 300 μL of the log phase culture was plated onto WC agar plates. The plates were sectioned into quadrants and a Kirby-Bauer (KB) disc impregnated with a defined amount of hygromycin A was placed in each quadrant. Plates were prepared thus in triplicate and the four amounts of hygromycin A were 40, 20 10 and 5 micrograms. The same volume of culture was spread on fourth plate sectioned into six sections for three positive and three negative controls. KB discs with water served as negative controls and KB discs impregnated with 2 micrograms of clindamycin served as positive controls. […] Table 3, Table 4, Table 5, Table 6, Table 7, Table 8 show the mean size of zone inhibitions for each of the subspecies tested using increasing concentrations of hygromycin A where the standard error of mean is represented in parenthesis.
(§5) The amount of hygromycin A was plotted against the size of the zone of inhibition for each strain tested.

F. nucleatum vincentii = experiment: Kirby-Bauer diffusion assay; format: cell-based, Fusobacterium nucleatum; settings: for zone of inhibition at 5 µg/disc / zone of inhibition at 10 µg/disc / zone of inhibition at 20 µg/disc / zone of inhibition at 40 µg/disc: Fusobacterium nucleatum, mean (SEM), read-out: size of zone inhibition (mm); for zone of inhibition at 5 µg/disc: Hyg A 5 μg per disc; for zone of inhibition at 10 µg/disc: Hyg A 10 μg per disc; for zone of inhibition at 20 µg/disc: Hyg A 20 μg per disc; for zone of inhibition at 40 µg/disc: Hyg A 40 μg per disc
Procedure: as §1, §2, §3, §4, §5

F. nucleatum fusiforme = experiment: Kirby-Bauer diffusion assay; format: cell-based; settings: Fusobacterium nucleatum, mean (SEM), read-out: size of zone inhibition (mm); for zone of inhibition at 5 µg/disc: Hyg A 5 μg per disc; for zone of inhibition at 10 µg/disc: Hyg A 10 μg per disc; for zone of inhibition at 20 µg/disc: Hyg A 20 μg per disc; for zone of inhibition at 40 µg/disc: Hyg A 40 μg per disc
Procedure: as §1, §2, §3, §4, §5

F. nucleatum nucleatum = experiment: Kirby-Bauer diffusion assay; format: cell-based; settings: Fusobacterium nucleatum, mean (SEM), read-out: size of zone inhibition (mm); for zone of inhibition at 5 µg/disc: Hyg A 5 μg per disc
Procedure: as §1, §2, §3, §4, §5

[2] = strain 203C15, 42 mm = assigned maximum
[3] = strain 203L25, 42 mm = assigned maximum

MIC ([1]; ATCC33277, P. gingivalis 33277, experiment 1, read-out: MIC (μg/ml) 1): 5 µg/mL
MIC ([1]; ATCC33277, P. gingivalis 33277, experiment 2, read-out: MIC (μg/ml) 2): 5 µg/mL
Structure (SMILES): CC(=O)[C@H]1O[C@@H](Oc2ccc(/C=C(\C)C(=O)N[C@@H]3[C@H](O)[C@@H](O)[C@H]4OCO[C@H]4[C@@H]3O)cc2O)[C@@H](O)[C@@H]1O [Hyg A, Hygromycin A]
zone of inhibition at 5 µg/disc (F. nucleatum animalis; strain 7_1): 18.3 mm
zone of inhibition at 10 µg/disc (F. nucleatum animalis; strain 7_1): 18 mm
zone of inhibition at 20 µg/disc (F. nucleatum animalis; strain 7_1): 22.7 mm
zone of inhibition at 40 µg/disc (F. nucleatum animalis; strain 7_1): 24.3 mm
zone of inhibition at 5 µg/disc (F. nucleatum animalis; strain 218A8): 19.7 mm
zone of inhibition at 10 µg/disc (F. nucleatum animalis; strain 218A8): 21.7 mm
zone of inhibition at 20 µg/disc (F. nucleatum animalis; strain 218A8): 29.7 mm
zone of inhibition at 40 µg/disc (F. nucleatum animalis; strain 218A8, 42 mm = assigned maximum): 42 mm
zone of inhibition at 5 µg/disc (F. nucleatum animalis; strain CRC 7_3 JVN3C1): 0 mm
zone of inhibition at 10 µg/disc (F. nucleatum animalis; strain CRC 7_3 JVN3C1): 0 mm
zone of inhibition at 20 µg/disc (F. nucleatum animalis; strain CRC 7_3 JVN3C1): 0 mm
zone of inhibition at 40 µg/disc (F. nucleatum animalis; strain CRC 7_3 JVN3C1): 0 mm
strain sensitivity in words (F. nucleatum animalis; strain CRC 7_3JVN3C1, 5-40 μg discs): fully resistant
zone of inhibition at 5 µg/disc (F. nucleatum vincentii; strain 3/1/36A2): 19 mm
zone of inhibition at 10 µg/disc (F. nucleatum vincentii; strain 3/1/36A2): 21.3 mm
zone of inhibition at 20 µg/disc (F. nucleatum vincentii; strain 3/1/36A2): 24.7 mm
zone of inhibition at 40 µg/disc (F. nucleatum vincentii; strain 3/1/36A2): 27.7 mm
zone of inhibition at 5 µg/disc (F. nucleatum vincentii; strain 215A9): 0 mm
zone of inhibition at 10 µg/disc (F. nucleatum vincentii; strain 215A9): 0 mm
zone of inhibition at 20 µg/disc (F. nucleatum vincentii; strain 215A9): 0 mm
zone of inhibition at 40 µg/disc (F. nucleatum vincentii; strain 215A9): 0 mm
zone of inhibition at 5 µg/disc (F. nucleatum vincentii; strain CC53): 16.3 mm
zone of inhibition at 10 µg/disc (F. nucleatum vincentii; strain CC53): 21.3 mm
zone of inhibition at 20 µg/disc (F. nucleatum vincentii; strain CC53): 24 mm
zone of inhibition at 40 µg/disc (F. nucleatum vincentii; strain CC53): 27.3 mm
strain sensitivity in words (F. nucleatum vincentii; strain 215A9, 5-40 μg discs): fully resistant
zone of inhibition at 5 µg/disc (F. nucleatum fusiforme; strain 203C15): 18 mm
zone of inhibition at 10 µg/disc (F. nucleatum fusiforme; strain 203C15): 24 mm
zone of inhibition at 20 µg/disc (F. nucleatum fusiforme; [2]): 42 mm
zone of inhibition at 40 µg/disc (F. nucleatum fusiforme; [2]): 42 mm
zone of inhibition at 5 µg/disc (F. nucleatum fusiforme; strain 203L25): 25 mm
zone of inhibition at 10 µg/disc (F. nucleatum fusiforme; strain 203L25): 28.7 mm
zone of inhibition at 20 µg/disc (F. nucleatum fusiforme; [3]): 42 mm
zone of inhibition at 40 µg/disc (F. nucleatum fusiforme; [3]): 42 mm
zone of inhibition at 5 µg/disc (F. nucleatum fusiforme; strain 203L30): 22.3 mm
zone of inhibition at 10 µg/disc (F. nucleatum fusiforme; strain 203L30): 24.3 mm
zone of inhibition at 20 µg/disc (F. nucleatum fusiforme; strain 203L30): 28 mm
zone of inhibition at 40 µg/disc (F. nucleatum fusiforme; strain 203L30): 30 mm
zone of inhibition at 5 µg/disc (F. nucleatum nucleatum; strain 203L34): 24 mm
zone of inhibition at 10 µg/disc (F. nucleatum nucleatum; strain 203L34, Hyg A 10 μg per disc): 30 mm
zone of inhibition at 20 µg/disc (F. nucleatum nucleatum; strain 203L34, Hyg A 20 μg per disc): 39.7 mm
zone of inhibition at 40 µg/disc (F. nucleatum nucleatum; strain 203L34, Hyg A 40 μg per disc, 42 mm = assigned maximum): 42 mm
zone of inhibition at 5 µg/disc (F. nucleatum nucleatum; strain 25586 (first column)): 16 mm
